Test results from patent US6479435B1, “Diaryl ethers and processes for their preparation and herbicidal and desiccant compositions containing them” (ISK Americas Incorporated, priority 1997, dated 2002).

Assays:
Assay type in all cases: in vivo
[1] = test system: ivyleaf morningglory (Ipomoea hederacea, IPOHE); assay: Post-emerge greenhouse herbicide test, phytotoxicity rating; settings: 14 days after application, scale 0-100
Method in brief: (§1)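 Plants at the 2-3 leaf stage, sown 8-21 days earlier, were track-sprayed post-emergence with compound in acetone plus 0.25% v/v non-ionic surfactant at 63-1000 g ai/ha (187 l/ha). Damage was rated at 14 days on a 0-100 scale (0 none, 100 all plants dead), for both crop injury and weed control.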

[2] = test system: green foxtail (Setaria viridis, SETVI); assay: as above; settings: 14 days after application, scale 0-100
Method in brief: as §1

[3] = test system: Johnsongrass (Sorghum halepense, SORHA); assay: as above; settings: 14 days after application, scale 0-100
Method in brief: as §1

[4] = test system: large crabgrass (Digitaria sanguinalis, DIGSA); assay: as above; settings: 14 days after application, scale 0-100
Method in brief: as §1

[5] = test system: barnyardgrass (Echinochloa crusgalli, ECHCG); assay: as above; settings: 14 days after application, scale 0-100
Method in brief: as §1

[6] = test system: sicklepod (Cassia obtusifolia, CASOB); assay: as above; settings: 14 days after application, scale 0-100
Method in brief: as §1

[7] = test system: redroot pigweed (Amaranthus retroflexus, AMARE); assay: as above; settings: 14 days after application, scale 0-100
Method in brief: as §1

[8] = test system: lambsquarters (Chenopodium album, CHEAL); assay: as above; settings: 14 days after application, scale 0-100
Method in brief: as §1

[9] = test system: velvetleaf (Abutilon theophrasti, ABUTH); assay: as above; settings: 14 days after application, scale 0-100
Method in brief: as §1

[10] = test system: field corn (Zea mays L., var. Dekalb 535, CORN); assay: Post-emerge greenhouse test, crop damage rating; settings: 14 days after application, scale 0-100
Method in brief: as §1

[11] = test system: upland rice (Oryza sp., var.Tebonnet, RICE); assay: Post-emerge greenhouse test, crop damage rating; settings: 14 days after application, scale 0-100
Method in brief: as §1

[12] = test system: ivyleaf morningglory (Ipomoea hederacea, IPOHE); assay: Pre-emerge greenhouse herbicide test, phytotoxicity rating; settings: 14 days after application, rating scale 0-100
Method in brief: (§2)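 Seeds sown in sandy loam one day before track-sprayer application of acetone solutions at 125–1000 g ai/ha (187 l/ha), then surface-watered to incorporate and bottom-watered. Injury scored visually at 14 days on a 0–100 scale (0 no damage, 100 complete death).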

[13] = test system: green foxtail (Setaria viridis, SETVI); assay: as above; settings: 14 days after application, rating scale 0-100
Method in brief: as §2

[14] = test system: Johnsongrass (Sorghum halepense, SORHA); assay: as above; settings: 14 days after application, rating scale 0-100
Method in brief: as §2

[15] = test system: large crabgrass (Digitaria sanguinalis, DIGSA); assay: as above; settings: 14 days after application, rating scale 0-100
Method in brief: as §2

[16] = test system: barnyardgrass (Echinochloa crusgalli, ECHCG); assay: as above; settings: 14 days after application, rating scale 0-100
Method in brief: as §2

[17] = test system: sicklepod (Cassia obtusifolia, CASOB); assay: as above; settings: 14 days after application, rating scale 0-100
Method in brief: as §2

[18] = test system: redroot pigweed (Amaranthus retroflexus, AMARE); assay: as above; settings: 14 days after application, rating scale 0-100
Method in brief: as §2

[19] = test system: lambsquarters (Chenopodium album, CHEAL); assay: as above; settings: 14 days after application, rating scale 0-100
Method in brief: as §2

[20] = test system: velvetleaf (Abutilon theophrasti, ABUTH); assay: as above; settings: 14 days after application, rating scale 0-100
Method in brief: as §2

[21] = test system: soybean (Glycine max L., var. Pella 86, SOY); assay: Post-emerge greenhouse test, crop damage rating; set-up: key to crop damage rating SOY: 0-100 scale: 0 = no damage, 100 = complete death of all plants; settings: 14 days after application, scale 0-100
Method in brief: as §1

[22] = test system: common ragweed (Ambrosia artemisiifolia L., AMBEL); assay: Post-emerge greenhouse herbicide test, phytotoxicity rating; settings: 14 days after application, scale 0-100
Source text: A standard greenhouse herbicide activity screening system was used to evaluate the herbicidal efficacy and crop safety of these test compounds. Six broadleaf weed species including redroot pigweed (Amaranthus retroflexus, AMARE), velvetleaf (Abutilon theophrasti, ABUTH), sicklepod (Cassia obtusifolia, CASOB), ivyleaf morningglory (Ipomoea hederacea, IPOHE), lambsquarters (Chenopodium album, CHEAL) and common ragweed (Ambrosia artemisiifolia L., AMBEL) were used as test species. Four grass weed species including green foxtail (Setaria viridis, SETVI), barnyardgrass (Echinochloa crusgalli, ECHCG), Johnsongrass (Sorghum halepense, SORHA), and large crabgrass (Digitaria sanguinalis, DIGSA) were also used. In addition, three crop species, field corn (Zea mays L., var. Dekalb 535, CORN), soybean (Glycine max L., var. Pella 86, SOY), and upland rice (Oryza sp., var.Tebonnet, RICE) were included.
All test compounds were dissolved in acetone and applied to the test units in a volume of 187 l/ha. […] Plants were arranged on a shelf so that the top of the canopy (post-emerge) or top of the soil surface (pre-emerge) was 40-45 cm below the nozzle. Pressurized air was used to force the test solution through the nozzle as it was mechanically advanced (via electrically driven chain drive) over the top of all test plants/pots. This application simulates a typical commercial field herbicide application.
In the post-emerge test, a commercial non-ionic surfactant was also included (0.25% v/v) to enhance wetting of the leaf surfaces Qf target plants at rates ranging from 63 g ai/ha to 1000 g ai/ha. For post-emerge tests, seeds were planted 8-21 days prior to the test to allow emergence and good foliage development prior to application of the test substances. At the time of the post-emerge application, plants of all species were usually at the 2-3 leaf stage of development. Post-emerge test units were always bottom-watered.
At 14 days after application of the test materials, phytotoxicity ratings were recorded. A rating scale of 0-100 was used as previously described in Research Methods in Weed Science, 2nd edition, B. Truelove, Ed., Southern Weed Science Society, Auburn University, Auburn, Ala., 1977. Briefly, “0” corresponds to no damage and “100” corresponds to complete death of all plants in the test unit. This scale was used both to determine efficacy against weed species and damage to crop species. Herbicide activity data for various compounds of this invention, which are shown by compound number in Tables 1-9, are shown in Tables 13 and 14.

[23] = test system: field corn (Zea mays L., var. Dekalb 535, CORN); assay: Pre-emerge greenhouse test, crop damage rating; settings: 14 days after application, rating scale 0-100
Method in brief: as §2

[24] = test system: upland rice (Oryza sp., var.Tebonnet, RICE); assay: Pre-emerge greenhouse test, crop damage rating; settings: 14 days after application, rating scale 0-100
Method in brief: as §2

[25] = test system: soybean (Glycine max L., var. Pella 86, SOY); assay: Pre-emerge greenhouse test, crop damage rating; set-up: key to SOY crop damage rating: 0 = no damage, 100 = complete death of all plants; settings: 14 days after application, rating scale 0-100
Method in brief: as §2

CSc1cccnc1Oc1cc(-n2c(=O)n3n(c2=S)CCCC3)c(F)cc1Cl [Compound 8-43]
phytotoxicity rating IPOHE ([1]; rate 63 g ai/ha): 100
phytotoxicity rating IPOHE ([1]; rate 250 g ai/ha): 100
phytotoxicity rating SETVI ([2]; rate 63 g ai/ha): 40
phytotoxicity rating SETVI ([2]; rate 250 g ai/ha): 60
phytotoxicity rating SORHA ([3]; rate 63 g ai/ha): 20
phytotoxicity rating SORHA ([3]; rate 250 g ai/ha): 30
phytotoxicity rating DIGSA ([4]; rate 63 g ai/ha): 0
phytotoxicity rating DIGSA ([4]; rate 250 g ai/ha): 20
phytotoxicity rating ECHCG ([5]; rate 63 g ai/ha): 20
phytotoxicity rating ECHCG ([5]; rate 250 g ai/ha): 30
phytotoxicity rating CASOB ([6]; rate 63 g ai/ha): 95
phytotoxicity rating CASOB ([6]; rate 250 g ai/ha): 100
phytotoxicity rating AMARE ([7]; rate 63 g ai/ha): 60
phytotoxicity rating AMARE ([7]; rate 250 g ai/ha): 90
phytotoxicity rating CHEAL ([8]; rate 63 g ai/ha): 90
phytotoxicity rating CHEAL ([8]; rate 250 g ai/ha): 100
phytotoxicity rating ABUTH ([9]; rate 63 g ai/ha): 100
phytotoxicity rating ABUTH ([9]; rate 250 g ai/ha): 100
crop damage rating CORN ([10]; rate 63 g ai/ha): 20
crop damage rating CORN ([10]; rate 250 g ai/ha): 30
crop damage rating RICE ([11]; rate 63 g ai/ha): 10
crop damage rating RICE ([11]; rate 250 g ai/ha): 30
IPOHE phytotoxicity rating ([12]; Rate 125 g al/ha): 0
IPOHE phytotoxicity rating ([12]; Rate 250 g al/ha): 20
SETVI phytotoxicity rating ([13]; Rate 125 g al/ha): 100
SETVI phytotoxicity rating ([13]; Rate 250 g al/ha): 100
SORHA phytotoxicity rating ([14]; Rate 125 g al/ha): 0
SORHA phytotoxicity rating ([14]; Rate 250 g al/ha): 0
DIGSA phytotoxicity rating ([15]; Rate 125 g al/ha): 90
DIGSA phytotoxicity rating ([15]; Rate 250 g al/ha): 100
ECHCG phytotoxicity rating ([16]; Rate 125 g al/ha): 0
ECHCG phytotoxicity rating ([16]; Rate 250 g al/ha): 0
CASOB phytotoxicity rating ([17]; Rate 125 g al/ha): 20
CASOB phytotoxicity rating ([17]; Rate 250 g al/ha): 30
AMARE phytotoxicity rating ([18]; Rate 125 g al/ha): 20
AMARE phytotoxicity rating ([18]; Rate 250 g al/ha): 70
CHEAL phytotoxicity rating ([19]; Rate 125 g al/ha): 100
CHEAL phytotoxicity rating ([19]; Rate 250 g al/ha): 100
ABUTH phytotoxicity rating ([20]; Rate 125 g al/ha): 10
ABUTH phytotoxicity rating ([20]; Rate 250 g al/ha): 30
crop damage rating SOY ([21]; rate 63 g ai/ha): 80
crop damage rating SOY ([21]; rate 250 g ai/ha): 100
phytotoxicity rating AMBEL ([22]; rate 63 g ai/ha): 100
phytotoxicity rating AMBEL ([22]; rate 250 g ai/ha): 100
CORN crop damage rating ([23]; Rate 125 g al/ha): 0
CORN crop damage rating ([23]; Rate 250 g al/ha): 0
RICE crop damage rating ([24]; Rate 125 g al/ha): 20
RICE crop damage rating ([24]; Rate 250 g al/ha): 20
SOY crop damage rating ([25]; Rate 125 g al/ha): 0
SOY crop damage rating ([25]; Rate 250 g al/ha): 0
